Broadly, the IC50 is the concentration needed to halve the response being measured.

Where a name gives a salt, the structure may show the parent alone.

The assay concerns the target T1, full length SGK1 (Homo sapiens, UniProt O00141).
T1 construct: 125 μM full length SGK1 (Life Technologies Part #PR7358A); purchased Life Technologies PR7358A
T1 sequence (O00141 1-431): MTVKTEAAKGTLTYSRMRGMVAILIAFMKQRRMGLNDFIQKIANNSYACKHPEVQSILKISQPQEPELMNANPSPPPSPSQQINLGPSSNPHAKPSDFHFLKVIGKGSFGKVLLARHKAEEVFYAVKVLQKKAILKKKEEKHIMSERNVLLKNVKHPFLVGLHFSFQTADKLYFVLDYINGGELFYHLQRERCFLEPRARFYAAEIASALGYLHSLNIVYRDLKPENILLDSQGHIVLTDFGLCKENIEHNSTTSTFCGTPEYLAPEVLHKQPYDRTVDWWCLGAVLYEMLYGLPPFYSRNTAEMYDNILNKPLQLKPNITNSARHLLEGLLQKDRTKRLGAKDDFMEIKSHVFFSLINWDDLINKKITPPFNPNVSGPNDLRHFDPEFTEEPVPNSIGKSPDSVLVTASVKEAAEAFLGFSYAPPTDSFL
The experiment in a line: SGK1 inhibition Assay A (Caliper LabChip electrophoretic separation of fluorescent peptide substrate and phosphorylated product). It counts as biochemical. As to conditions: Assay A; 20 μM ATP, 40 min incubation; read-out: SGK1 IC50.

On to `CC(=O)N1CC=C(c2cc(N3CCC[C@@H](NC(=O)N4CC[C@@H](O)C4)C3)c3c(N)ncnn23)C1` [Example 874, (R)—N—((R)-1-(7-(1-acetyl-2,5-dihydro-1H-pyrrol-3-yl)-4-aminopyrrolo[2,1-f][1,2,4]triazin-5-yl)piperidin-3-yl)-3-hydroxypyrrolidine-1-carboxamide], for which the half-maximal inhibitory concentration (IC50) turned out to be 482 nM.
`CC(=O)N1CC=C(c2cc(N3CCC[C@@H](NC(=O)N4CC[C@H](O)C4)C3)c3c(N)ncnn23)C1` [Example 875, (S)-N-((R)-1-(7-(1-acetyl-2,5-dihydro-1H-pyrrol-3-yl)-4-aminopyrrolo[2,1-f][1,2,4]triazin-5-yl)piperidin-3-yl)-3-hydroxypyrrolidine-1-carboxamide]: the half-inhibitory concentration (IC50) worked out at 477 nM.
As for `CC(=O)N1CC=C(c2cc(N3CCC[C@@H](NC(=O)N4CCCC4)C3)c3c(N)ncnn23)C1` [Example 876, (R)-N-(1-(7-(1-acctyl-2,5-dihydro-1H-pyrrol-3-yl)-4-aminopyrrolo[2,1-f][1,2,4]triazin-5-yl)piperidin-3-yl)pyrrolidine-1-carboxamide], the figure is 264 nM; as for `CC(=O)N1CC=C(c2cc(N3CCC[C@@H](NC(=O)c4ccon4)C3)c3c(N)ncnn23)C1` [Example 879, (R)—N-(1-(7-(1-acetyl-2,5-dihydro-1H-pyrrol-3-yl)-4-aminopyrrolo[2,1-f][1,2,4]triazin-5-yl)piperidin-3-yl)isoxazole-3-carboxamide], 149 nM; as for `Nc1ncnn2c(C3=CCN(C(=O)c4nccs4)C3)cc(N3CCC[C@@H](NC(=O)c4ccc(Cl)s4)C3)c12` [Example 880, (R)—N-(1-(4-amino-7-(1-(thiazole-2-carbonyl)-2,5-dihydro-1H-pyrrol-3-yl)pyrrolo[2,1-f][1,2,4]triazin-5-yl)piperidin-3-yl)-5-chlorothiophene-2-carboxamide], 15 nM.
For `NCC(=O)N1CC=C(c2cc(N3CCC[C@@H](NC(=O)c4ccc(Cl)s4)C3)c3c(N)ncnn23)C1` [Example 881, (R)-N-(1-(4-amino-7-(1-glycyl-2,5-dihydro-1H-pyrrol-3-y1)pyrrolo[2,1-f][1,2,4]triazin-5-yl)piperidin-3-y1)-5-chlorothiophene-2-carboxamide], the half-inhibitory concentration (IC50) amounted to 7 nM.
For the compound `Nc1ncnn2c(C3=CCN(C(=O)c4ccon4)C3)cc(N3CCC[C@@H](NC(=O)c4ccc(Cl)s4)C3)c12` [Example 882, (R)-N-(1-(4-amino-7-(1-(isoxazole-3-carbonyl)-2,5-dihydro-1H-pyrrol-3-yl)pyrrolo[2,1-f][1,2,4]triazin-5-y1)piperidin-3-y1)-5-chlorothiophene-2-carboxamide], the half-maximal inhibitory concentration (IC50) stood at 1 nM.
For `NCCC(=O)N1CC=C(c2cc(N3CCC[C@@H](NC(=O)c4ccc(Cl)s4)C3)c3c(N)ncnn23)C1` [Example 883, (R)-N-(1-(4-amino-7-(1-(3-aminopropanoy1)-2,5-dihydro-1H-pyrrol-3-yl)pyrrolo[2,1-f][1,2,4]triazin-5-y1)piperidin-3-y1)-5-chlorothiophene-2-carboxamide], the IC50 came out at 6 nM.
With `Cc1nc(-c2cc(C(=O)N3CC=C(c4cc(N5CCC[C@@H](NC(=O)c6ccc(Cl)s6)C5)c5c(N)ncnn45)C3)no2)cs1` [Example 884, (R)-N-(1-(4-amino-7-(1-(5-(2-methylthiazol-4-yl)isoxazole-3-carbony1)-2,5-dihydro-1H-pyrrol-3-yl)pyrrolo[2,1-f][1,2,4]triazin-5-y1)piperidin-3-y1)-5-chlorothiophene-2-carboxamide], the IC50 worked out at 99 nM.
Consider `Nc1ncnn2c(C3=CCN(C(=O)c4ccns4)C3)cc(N3CCC[C@@H](NC(=O)c4ccc(Cl)s4)C3)c12` [Example 885, (R)-N-(1-(4-amino-7-(1-(isothiazole-5-carbonyl)-2,5-dihydro-1H-pyrrol-3-yl)pyrrolo[2,1-f][1,2,4]triazin-5-y1)piperidin-3-y1)-5-chlorothiophene-2-carboxamide], for which the IC50 was 8 nM.
For the compound `Nc1ncnn2c(C3=CCN(C(=O)c4cncs4)C3)cc(N3CCC[C@@H](NC(=O)c4ccc(Cl)s4)C3)c12` [Example 886, (R)-N-(1-(4-amino-7-(1-(thiazole-5-carbonyl)-2,5-dihydro-1H-pyrrol-3-yl)pyrrolo[2,1-f][1,2,4]triazin-5-yl)piperidin-3-y1)-5-chlorothiophene-2-carboxamide], the IC50 is 4 nM.
To `Nc1ncnn2c(C3=CCN(C(=O)c4ncco4)C3)cc(N3CCC[C@@H](NC(=O)c4ccc(Cl)s4)C3)c12` [Example 887, (R)-N-(1-(4-amino-7-(1-(oxazole-2-carbonyl)-2,5-dihydro-1H-pyrrol-3-y1)pyrrolo[2,1-f][1,2,4]triazin-5-y1)piperidin-3-y1)-5-chlorothiophene-2-carboxamide] belongs 8 nM.
On to `Nc1ncnn2c(C3=CCN(C(=O)[C@H]4CCOC4)C3)cc(N3CCC[C@@H](NC(=O)c4ccc(Cl)s4)C3)c12` [Example 888, N-((R)-1-(4-amino-7-(1-((S)-tetrahydrofuran-3-carbonyl)-2,5-dihydro-1H-pyrrol-3-yl)pyrrolo[2,1-f][1,2,4]triazin-5-yl)piperidin-3-y1)-5-chlorothiophene-2-carboxamide], for which the IC50 is 6 nM.
`Nc1ncnn2c(C3=CCN(C(=O)[C@H]4CCCN4)C3)cc(N3CCC[C@@H](NC(=O)c4ccc(Cl)s4)C3)c12` [Example 889, N-((R)-1-(7-(1-(D-proly1)-2,5-dihydro-1H-pyrrol-3-y1)-4-aminopyrrolo[2,1-f][1,2,4]triazin-5-yl)piperidin-3-y1)-5-chlorothiopbene-2-carboxamide, TFA]: the IC50 was 21 nM.
In the case of `Nc1ncnn2c(C3=CCN(C(=O)c4cnco4)C3)cc(N3CCC[C@@H](NC(=O)c4ccc(Cl)s4)C3)c12` [Example 890, (R)-N-(1-(4-amino-7-(1-(oxazole-5-carbony1)-2,5-dihydro-1H-pyrrol-3-y1)pyrrolo[2,1-f][1,2,4]triazin-5-yl)piperidin-3-y1)-5-chlorothiophene-2-carboxamide], the concentration for half-maximal inhibition (IC50) is 1 nM.
As to `Nc1ncnn2c(C3=CCN(C(=O)[C@H]4CCNC4)C3)cc(N3CCC[C@@H](NC(=O)c4ccc(Cl)s4)C3)c12` [Example 891, N-((R)-1-(4-amino-7-(1-((S)-pyrrolidine-3-carbonyl)-2,5-dihydro-1H-pyrrol-3-y1)pyrrolo[2,1-f][1,2,4]triazin-5-y1)piperidin-3-y1)-5-chlorothiophene-2-carboxamide], the 50% inhibitory concentration (IC50) turned out to be 25 nM.
As to `Nc1ncnn2c(C3=CCN(C(=O)[C@H]4CCCCN4)C3)cc(N3CCC[C@@H](NC(=O)c4ccc(Cl)s4)C3)c12` [Example 892, N-((R)-1-(4-amino-7-(1-((R)-piperidine-2-carbonyl)-2,5-dihydro-1H-pyrrol-3-y1)pyrrolo[2,1-f][1,2,4]triazin-5-yl)piperidin-3-y1)-5-chlorothiophene-2-carboxamide, TFA], the IC50 stood at 15 nM.
With `Nc1ncnn2c(C3=CCN(C(=O)C4CCCOC4)C3)cc(N3CCC[C@@H](NC(=O)c4ccc(Cl)s4)C3)c12` (stereo partly drawn) [Example 893, N-((3R)-1-(4-amino-7-(1-(tetrahydro-2H-pyran-3-carbony1)-2,5-dihydro-1H-pyrrol-3-yl)pyrrolo[2,1-f][1,2,4]triazin-5-y1)piperidin-3-y1)-5-chlorothiophene-2-carboxamide], the 50% inhibitory concentration (IC50) amounted to 7 nM.
Regarding `Nc1ncnn2c(C3=CCN(C(=O)C4CCNCC4)C3)cc(N3CCC[C@@H](NC(=O)c4ccc(Cl)s4)C3)c12` [Example 894, (R)-N-(1-(4-amino-7-(1-(piperidine-4-carbonyl)-2,5-dihydro-1H-pyrrol-3-yl)pyrrolo[2,1-f][1,2,4]triazin-5-yl)piperidin-3-y1)-5-chlorothiophene-2-carboxamide], the IC50 stood at 14 nM.
Turning to `Nc1ncnn2c(C3=CCN(C(=O)[C@@H]4CCOC4)C3)cc(N3CCC[C@@H](NC(=O)c4ccc(Cl)s4)C3)c12` [Example 895, N-((R)-1-(4-amino-7-(1-((R)-tetrahydrofuran-3-carbonyl)-2,5-dihydro-1H-pyrrol-3-yl)pyrrolo[2,1-f][1,2,4]triazin-5-yl)piperidin-3-y1)-5~ chlorothiophene-2-carboxamide], the half-inhibitory concentration (IC50) was determined as 5 nM.
As for `Nc1ncnn2c(C3=CCN(C(=O)[C@@H]4CCNC4)C3)cc(N3CCC[C@@H](NC(=O)c4ccc(Cl)s4)C3)c12` [Example 896, N-((R)-1-(4-amino-7-(1-((R)-pyrrolidine-3-carbonyl)-2,5-dihydro-1H-pyrrol-3-yl)pyrrolo[2,1-f][1,2,4]triazin-5-yl)piperidin-3-y1)-5-chlorothiophene-2-carboxamide, TFA], the IC50 amounted to 10 nM.
`Nc1ncnn2c(C3=CCN(C(=O)C4CCCCO4)C3)cc(N3CCC[C@@H](NC(=O)c4ccc(Cl)s4)C3)c12` (stereo partly drawn) [Example 897, N-((3R)-1-(4-amino-7-(1-(tetrahydro-2H-pyran-2-carbony1)-2,5-dihydro-1H-pyrrol-3-y1)pyrrolo[2,1-f][1,2,4]triazin-5-yl)piperidin-3-y1)-5-chlorothiophene-2-carboxamide]: the IC50 is 8 nM.
To `Nc1ncnn2c(C3=CCN(C(=O)C4CCOCC4)C3)cc(N3CCC[C@@H](NC(=O)c4ccc(Cl)s4)C3)c12` [Example 898, (R)-N-(1-(4-amino-7-(1-(tetrahydro-2H-pyran-4-carbony1)-2,5-dihydro-1H-pyrrol-3-yl)pyrrolo[2,1-f][1,2,4]triazin-5-y1)piperidin-3-y1)-5-chlorothiophene-2-carboxamide] belongs 10 nM.

Source of the values: patent US20260250290A1 (BRISTOL-MYERS SQUIBB COMPANY, priority 2023, published 2026).
